For orientation: EC50 means the concentration giving half of the maximal effect.

What all share (assay type): cell-based
For test [1], the system named is 32 human tumor cell lines. As to the kind of experiment: Antiproliferative effect across tumor cell line panel (summary). As to conditions: across solid and hematologic tumor cell lines (Tables 1 and 2). The method, then:
Tumor cells were seeded in a Packard View 96-well plate in 100 μL of appropriate complete media at a density of 3000 or 5000 cells/well depending on the cell line growth kinetics (broadly defined as slow vs. fast). All dilutions were performed using Biomek FX workstation. The next day cells were treated with AMG 900 (11-point dose range 0.156 to 0.0003 μM) with a final DMSO concentration of 0.12% in media. After 24 hours, the media containing compound was removed and the cells were washed with complete media. The cells were then incubated in 100 μL of fresh complete media (without compound) for 48 hours. After 48 hours, the cells were fixed by adding 100 μL of fixation buffer to 100 μL of complete media. […] Quantification of individual cell nuclear area and intensity was performed based on Hoechst 33342 DNA dye fluorescence. A threshold on the nuclear area based on the DMSO-treated control well was set to quantify the number of normal size nuclei from nuclear debris and polyploidy cells. […] The dose-concentration curves and EC50 values were calculated using a 4-parameter equation.
Tumor cells were seeded in a 300 μL deep 96-well plate in 150 μL of appropriate complete media at a density of 100,000 cells/well. […] Data was acquired and analyzed by flow cytometer (LSRII). […] The concentration-response curves and EC50 values were calculated using a 4-parameter equation.

The test system of the next test is HCT116 AZD1152-resistant. The test is described as follows: ≧4N DNA content assay (FIG. 6-A). As to conditions: Homo sapiens, HCT-116; HCT116 AZD1152-resistant subline; 24 hours; read-out: cellular ≧4N DNA content EC50. The method, then: Tumor cell lines were obtained from the American Type Culture Collection (ATCC) unless otherwise specified. The MDA-MB-231-PTX and NCI-H460-PTX cell lines were established by growing the cells in the presence of increasing concentrations of paclitaxel over a period of 6 months. The HCT116 AZD1152-resistant cell line was established by growing the cells in the presence of AZD1152 at 80 nmol/L.
(§1) Tumor cells were treated with AMG 900, AZD1152, MK-0457, or PHA-739358 (range concentration varied based on potency) for 24 hours and processed for cell-cycle analysis (DNA staining only) as previously described (1). Cells were analyzed on a LSRII flow cytometer using BD FACS Diva software. The concentration-response curves and corresponding EC50 values were calculated using the percentage of cells with ≧4N DNA content versus the DMSO control.
(§2) HCT116 cell lines were treated with increasing concentrations of AMG 900 or AZD1152 for 24 hours. Flow cytometry was used to assess the accumulation of cells with ≧4N DNA content expressed as a percentage of the DMSO-treated control (POC). The concentration-response curves and calculated EC50 values were determined from two independent experiments (bars, ±SD).

The subject of a further test is HCT116 parental. The test is described as follows: ≧4N DNA content assay (FIG. 6-A). The following applies: Homo sapiens, HCT-116, 24 hours, read-out: cellular ≧4N DNA content EC50. How it is done: as §1, §2

For the compound `Cc1csc(-c2nnc(Nc3ccc(Oc4ncccc4-c4ccnc(N)n4)cc3)c3ccccc23)c1` [AMG 900, N-(4-((3-(2-amino-4-pyrimidinyl)-2-pyridinyl)oxy)phenyl)-4-(4-methyl-2-thienyl)-1-phthalazinamine], the EC50 in test [1] was 1 to 5 nM; in the test with HCT116 AZD1152-resistant, 5 nM; with HCT116 parental, 2 nM.
